Assay results reported in patent US10899759B2, “Positive allosteric modulators of the muscarinic acetylcholine receptor M1” (Vanderbilt University, priority 2016, dated 2021).
Read-outs that look alike come from different tables or passages of the source.

Molecular target: T1, human mAChR M1 (Homo sapiens, UniProt P11229)
T1 construct: host or cells: CHO-K1
T1 sequence (P11229 1-460): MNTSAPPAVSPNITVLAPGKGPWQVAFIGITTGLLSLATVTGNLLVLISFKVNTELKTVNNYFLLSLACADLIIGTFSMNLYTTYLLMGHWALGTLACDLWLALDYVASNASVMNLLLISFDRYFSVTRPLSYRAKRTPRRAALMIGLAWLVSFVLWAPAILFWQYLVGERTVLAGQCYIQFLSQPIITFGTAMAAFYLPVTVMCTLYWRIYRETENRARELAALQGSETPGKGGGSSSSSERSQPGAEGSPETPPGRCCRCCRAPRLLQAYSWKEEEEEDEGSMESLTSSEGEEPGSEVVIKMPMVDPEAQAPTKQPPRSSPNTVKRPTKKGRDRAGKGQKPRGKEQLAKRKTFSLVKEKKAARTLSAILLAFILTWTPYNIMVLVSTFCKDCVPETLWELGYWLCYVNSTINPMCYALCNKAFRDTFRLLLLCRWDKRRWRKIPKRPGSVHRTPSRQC
Test: mAChR M1 cell-based functional assay (calcium mobilization, Fluo-4, FDSS)
Conditions: for EC50: positive allosteric modulator activity as increase in the EC20 acetylcholine response
Method in brief: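 CHO-K1 cells stably expressing muscarinic receptor, loaded with Fluo-4; 11-point 1:3 compound series added and calcium flux read over 300 s at 1 Hz. Agonism from direct calcium rise, PAM activity as potentiation of EC20 acetylcholine, antagonism as decrease of EC80 acetylcholine; four-parameter logistic fits.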

[1] = CHO-K1 cells stably expressing hM1, EC20 acetylcholine response, read-out: Human M1 Emax
[2] = CHO-K1 cells stably expressing hM1

| Emax [1] | EC50 [2] | SMILES | Emax (CHO-K1, read-out: Human M1 Emax) |
| --- | --- | --- | --- |
| 58.4% | 60 nM | Cn1ccc(-c2ccc(Cc3cc(C(=O)NC4CC(F)C4)nc4sccc34)cn2)n1 (stereo not drawn) [Compound 110, N-(3-fluorocyclobutyl)-4-[[6-(1-methylpyrazol-3-yl)-3-pyridyl]methyl]thieno[2,3-b]pyridine-6-carboxamide] |  |
| 57.3% | 30 nM | Cn1ccc2c(Cc3ccc(-c4nccs4)cc3)cc(C(=O)N[C@H]3CCOC[C@@H]3O)nc21 [Compound 59, N-[(3R,4S)-3-hydroxytetrahydropyran-4-yl]-1-methy1-4-[(4-thiazol-2-ylphenyl)methyl]pyrrolo[2,3-b]pyridine-6-carboxamide] |  |
| 86.6% | 200 nM | Cn1ncc2c(Cc3ccc(-n4cccn4)cc3)cc(C(=O)N[C@H]3CCCC[C@@H]3O)nc21 [Compound 8, N-[(1S,2S)-2-hydroxycyclohexyl]-1-methyl-4-[(4-pyrazol-1-ylphenyl)methyl]pyrazolo[3,4-b]pyridine-6-carboxamide] |  |
| 60.1% | 2370 nM | Cc1nc(-c2ccc(Cc3cc(C(=O)NCC4CCN4)nc4sccc34)cc2)co1 (stereo not drawn) [Compound 142, N-(azetidin-2-ylmethyl)-4-[[4-(2-methyloxazol-4-yl)phenyl]methyl]thieno[2,3-b]pyridine-6-carboxamide] |  |
| 52.9% | 30 nM | O=C(N[C@H]1CCCC[C@@H]1O)c1cc(Cc2ccc(-n3cccn3)cc2)c2ccsc2n1 [Compound 69, N-[(1S,2S)-2-hydroxycyclohexyl]-4-[(4-pyrazol-1-ylphenyl)methyl]thieno[2,3-b]pyridine-6-carboxamide] |  |
| 74.8% | 1770 nM | O=C(NC1CC(F)(F)C1)c1cc(Cc2ccc(-n3cccn3)cc2)c2ccsc2n1 [Compound 83, N-(3,3-difluorocyclobutyl)-4-[(4-pyrazol-1-ylphenyl)methyl]thieno[2,3-b]pyridine-6-carboxamide] |  |
| 50.6% | 2910 nM | Cn1ccc2c(Cc3ccc(-c4cscn4)cc3)cc(C(=O)N[C@H]3CCOC3)nc21 [Compound 33, 1-methyl-N-[(3S)-tetrahydrofuran-3-yl]-4-[(4-thiazol-4-ylphenyl)methyl]pyrrolo[2,3-b]pyridine-6-carboxamide] |  |
| 54.8% | 60 nM | Cn1cc(-c2ccc(Cc3cc(C(=O)NCC4CCOCC4)nc4sccc34)cn2)cn1 [Compound 119, 4-[[6-(1-methylpyrazol-4-yl)-3-pyridyl]methyl]-N-(tetrahydropyran-4-ylmethyl)thieno[2,3-b]pyridine-6-carboxamide] |  |
| 79.3% | 520 nM | Cn1ccc(-c2ccc(Cc3cc(C(=O)NC4CCOC(C)(C)C4)nc4c3ccn4C)cn2)n1 (stereo not drawn) [Compound 146, N-(2,2-dimethyltetrahydropyran-4-yl)-1-methyl-4-[[6-(1-methylpyrazol-3-yl)-3-pyridyl]methyl]pyrrolo[2,3-b]pyridine-6-carboxamide] |  |
| 64.2% | 950 nM | COCC(C)NC(=O)c1cc(Cc2ccc(-c3coc(C)n3)cc2)c2ccsc2n1 (stereo not drawn) [Compound 144, N-(2-methoxy-1-methyl-ethyl)-4-[[4-(2-methyloxazol-4-yl)phenyl]methyl]thieno[2,3-b]pyridine-6-carboxamide] |  |
| 59.5% | 390 nM | COCC(C)NC(=O)c1cc(Cc2ccc(-c3ccn(C)n3)nc2)c2ccsc2n1 (stereo not drawn) [Compound 112, N-(2-methoxy-1-methyl-ethyl)-4-[[6-(1-methylpyrazol-3-yl)-3-pyridyl]methyl]thieno[2,3-b]pyridine-6-carboxamide] |  |
| 77.7% | 820 nM | Cn1ccc(-c2ccc(Cc3cc(C(=O)NCC4CCOCC4)nc4c3ccn4C)cn2)n1 [Compound 150] |  |
| 77.6% | 470 nM | Cn1ccc(-c2ccc(Cc3cc(C(=O)NC4CCOCC4)nc4c3ccn4C)cn2)n1 [Compound 145, 1-methyl-4-[[6-(1-methylpyrazol-3-yl)-3-pyridyl]methyl]-N-tetrahydropyran-4-yl-pyrrolo[2,3-b]pyridine-6-carboxamide] |  |
| 84% | 270 nM | Cc1nc(-c2ccc(Cc3cc(C(=O)N[C@H]4CCC[C@@H]4O)nc4c3ccn4C)cc2)co1 [Compound 56, N-[(1S,2S)-2-hydroxycyclopentyl]-1-methy1-4-[[4-(2-methyloxazol-4-yl)phenyl]methyl]pyrrolo[2,3-b]pyridine-6-carboxamide] |  |
| 57.5% | 700 nM | Cn1cc(-c2ccc(Cc3cc(C(=O)NCC4CCOC4)nc4sccc34)cn2)cn1 (stereo not drawn) [Compound 122, 4-[[6-(1-methylpyrazol-4-yl)-3-pyridyl]methyl]-N-(tetrahydrofuran-3-ylmethyl)thieno[2,3-b]pyridine-6-carboxamide] |  |
| 63.8% | 270 nM | COCCNC(=O)c1cc(Cc2ccc(-c3cnn(C)c3)nc2)c2ccsc2n1 [Compound 127, N-(2-methoxyethyl)-4-[[6-(1-methylpyrazol-4-yl)-3-pyridyl]methyl]thieno[2,3-b]pyridine-6-carboxamide] |  |
| 49.6% | 610 nM | Cn1ccc(-c2ccc(Cc3cc(C(=O)NCC4CCOCC4)nc4c3ccn4C)cc2)n1 [Compound 43, 1-methyl-4-[[4-(1-methylpyrazol-3-yl)phenyl]methyl]-N-(tetrahydropyran-4-ylmethyl)pyrrolo[2,3-b]pyridine-6-carboxamide] |  |
| 75.4% | 140 nM | Cn1ccc2c(Cc3ccc(-c4cscn4)cc3)cc(C(=O)NC3CC4(COC4)C3)nc21 [Compound 23, 1-methyl-N-(2-oxaspiro[3.3]heptan-6-yl)-4-[(4-thiazol-4-ylphenyl)methyl]pyrrolo[2,3-b]pyridine-6-carboxamide] |  |
| 62% | 690 nM | COCC(C)NC(=O)c1cc(Cc2ccc(-n3cccn3)cc2)c2ccsc2n1 (stereo not drawn) [Compound 86, N-(2-methoxy-1-methyl-ethyl)-4-[(4-pyrazol-1-ylphenyl)methyl]thieno[2,3-b]pyridine-6-carboxamide] |  |
| 81.6% | 190 nM | Cn1ccc(-c2ccc(Cc3cc(C(=O)NC4CCOCC4(C)C)nc4c3ccn4C)cn2)n1 (stereo not drawn) [Compound 147] |  |
| 63.5% | 480 nM | COCC(C)NC(=O)c1cc(Cc2ccc(-c3ccn(C)n3)cc2)c2ccsc2n1 (stereo not drawn) [Compound 100, N-(2-methoxy-1-methyl-ethyl)-4-[[4-(1-methylpyrazol-3-yl)phenyl]methyl]thieno[2,3-b]pyridine-6-carboxamide] |  |
| 69.6% | 2090 nM | O=C(NC1CC(F)C1)c1cc(Cc2ccc(-n3cccn3)cc2)c2ccsc2n1 (stereo not drawn) [Compound 82] |  |
| 55.4% | 110 nM | Cn1ccc2c(Cc3ccc(-c4nccs4)cc3)cc(C(=O)N[C@H]3CCCC[C@@H]3O)nc21 [Compound 60, N-[(1S,2S)-2-hydroxycyclohexyl]-1-methyl-4-[(4-thiazol-2-ylphenyl)methyl]pyrrolo[2,3-b]pyridine-6-carboxamide] |  |
| 59.2% | 240 nM | Cc1nc(-c2ccc(Cc3cc(C(=O)NC4(C)COC4)nc4sccc34)cc2)co1 [Compound 140, 4-[[4-(2-methyloxazol-4-yl)phenyl]methyl]-N-(3-methyloxetan-3-yl)thieno[2,3-b]pyridine-6-carboxamide] |  |
| 69.9% | 1730 nM | Cn1ncc2c(Cc3ccc(-n4cccn4)cc3)cc(C(=O)NC3CC4(COC4)C3)nc21 [Compound 6, 1-methyl-N-(2-oxaspiro[3.3]heptan-6-yl)-4-[(4-pyrazol-1-ylphenyl)methyl]pyrazolo[3,4-b]pyridine-6-carboxamide] |  |
| 61.6% | 1180 nM | Cn1ccc(-c2ccc(Cc3cc(C(=O)NC4CCOCC4(C)C)nc4sccc34)cc2)n1 (stereo not drawn) [Compound 92, N-(3,3-dimethyltetrahydropyran-4-yl)-4-[[4-(1-methylpyrazol-3-yl)phenyl]methyl]thieno[2,3-b]pyridine-6-carboxamide] |  |
| 61.2% | 1390 nM | Cn1ccc2c(Cc3ccc(-c4nccs4)cc3)cc(C(=O)NC3CCOCC3(C)C)nc21 (stereo not drawn) [Compound 67] |  |
| 86.2% | 380 nM | Cn1cc(-c2ccc(Cc3cc(C(=O)N[C@H]4CC[C@@H]4O)nc4c3ccn4C)cn2)cn1 [Compound 50, N-[(1S,2S)-2-hydroxycyclobutyl]-1-methyl-4-[[6-(1-methylpyrazol-4-yl)-3-pyridyl]methyl]pyrrolo[2,3-b]pyridine-6-carboxamide] |  |

| SMILES | Emax [1] | EC50 [2] | Emax (CHO-K1, read-out: Human M1 Emax) |
| --- | --- | --- | --- |
| Cn1ccc2c(Cc3ccc(-c4cscn4)cc3)cc(C(=O)N[C@H]3CC[C@@H]3O)nc21 [Compound 3, N-[(1S,2S)-2-hydroxycyclobutyl]-1-methyl-4-[(4-thiazol-4-ylphenyl)methyl]pyrrolo[2,3-b]pyridine-6-carboxamide] |  | 360 nM | 70.4% |
| Cn1ccc(-c2ccc(Cc3cc(C(=O)N[C@H]4CCOC[C@@H]4O)nc4c3ccn4C)cc2)n1 [Compound 37, N-[(3R,4S)-3-hydroxytetrahydropyran-4-yl]-1-methyl-4-[[4-(1-methylpyrazol-3-yl)phenyl]methyl]pyrrolo[2,3-b]pyridine-6-carboxamide] | 76.7% | 60 nM |  |
